Laboratory results published in ChEMBL document CHEMBL5154799, “Discovery of a Novel Stilbene Derivative as a Microtubule Targeting Agent Capable of Inducing Cell Ferroptosis” (J Med Chem, 2022).
Counter-ions that a name gives are not always drawn. Activity calls are given as the source filed them. The rule behind the calls is not given here.

What was measured:
A549 [1] = test: Induction of apoptosis in human A549 cells assessed as early apoptotic cells at 50 nM incubated for 24 hrs by annexin V-FITC/PI staining based flow cytometry analysis; assay type: functional, cell-based
A549 [2] = test: Induction of apoptosis in human A549 cells assessed as cell viability pretreated with caspase inhibitor Z-VAD-FMK for 24 hrs followed by incubation with compound at 100 nM and measured after 48 hrs by CCK-8 assay; assay type: functional, cell-based
A549 [3] = test: Induction of apoptosis in human A549 cells assessed as cell viability pretreated with ferroptosis inhibitor desferoxamine for 24 hrs followed by incubation with compound at 100 nM and measured after 48 hrs by CCK-8 assay; assay type: functional, cell-based
A2780 [4] = test: Antiproliferative activity against human A2780 cells assessed as cell viability incubated for 48 hrs by MTT assay; assay type: functional, cell-based; details: A2780, 48 h
MCF7 = test: Antiproliferative activity against human MCF7 cells assessed as cell viability incubated for 48 hrs by MTT assay; assay type: functional, cell-based; details: MCF7, 48 h
HCT-8 [5] = test: Antiproliferative activity against human HCT-8 cells assessed as cell viability incubated for 48 hrs by MTT assay; assay type: functional, cell-based; details: HCT-8, 48 h
A549 [6] = test: Induction of apoptosis in human A549 cells assessed as cell viability pretreated with autophagy inhibitor 3-methyladenine for 24 hrs followed by incubation with compound at 100 nM and measured after 48 hrs by CCK-8 assay; assay type: functional, cell-based
A549 [7] = test: Antiproliferative activity against human A549 cells assessed as cell viability incubated for 48 hrs by MTT assay; assay type: functional, cell-based; details: A549, 48 h
A549 [8] = test: Induction of apoptosis in human A549 cells assessed as cell viability pretreated with ferroptosis inhibitor ferrostatin-1 for 24 hrs followed by incubation with compound at 100 nM and measured after 48 hrs by CCK-8 assay; assay type: functional, cell-based
HeLa = test: Antiproliferative activity against human HeLa cells assessed as cell viability incubated for 48 hrs by MTT assay; assay type: functional, cell-based
A549 [9] = test: Induction of apoptosis in human A549 cells assessed as cell viability pretreated with necroptosis inhibitor necrostatin-I for 24 hrs followed by incubation with compound at 100 nM and measured after 48 hrs by CCK-8 assay; assay type: functional, cell-based
A549 [10] = test: In vivo antitumor activity against human A549 cells xenografted in athymic nude BALB/c mouse assessed as tumor volume at 10 mg/kg measured after 30 days (reference value: 1503.3 mm^3); assay type: functional; details: time 30 day
A549 [11] = test: Induction of cell death in human A549 cells assessed as increased mitochondrial membrane density at 10 uM for 12 hrs by TEM analysis; assay type: functional, cell-based
A549 [12] = test: In vivo antitumor activity against human A549 cells xenografted in athymic nude BALB/c mouse assessed as tumor weight at 10 mg/kg measured after 30 days (reference value: 1 gram); assay type: functional; details: time 30 day
A549 [13] = test: Induction of cell death in human A549 cells assessed as vanished mitochondrial cristae at 10 uM for 12 hrs by TEM analysis; assay type: functional, cell-based
A549 [14] = test: Induction of ferroptosis in human A549 cells assessed as depletion of GSH levels at 10 uM upto 12 hrs; assay type: functional, cell-based
A549 [15] = test: In vivo antitumor activity against human A549 cells xenografted in athymic nude BALB/c mouse assessed as tumor growth inhibition at 10 mg/kg measured after 30 days relative to control; assay type: functional; details: A549, 720 h, time 30 day, read-out: TGI
A2780 [16] = test: Antiproliferative activity against human paclitaxel-resistant A2780/TAX cells assessed as cell viability incubated for 48 hrs by MTT assay; assay type: functional, cell-based; details: A2780, 48 h
HCT-8 [17] = test: Antiproliferative activity against human vincristine-resistant HCT-8/VCR cells assessed as cell viability incubated for 48 hrs by MTT assay; assay type: functional, cell-based; details: HCT-8, 48 h
A549 [18] = test: Antiproliferative activity against human adriamycin-resistant A549/ADR cells assessed as cell viability incubated for 48 hrs by MTT assay; assay type: functional, cell-based; details: A549, 48 h
A549 [19] = test: Induction of apoptosis in human A549 cells assessed as cell viability pretreated with ferroptosis inhibitor ferrostatin-1 for 24 hrs followed by incubation with compound at 200 nM and measured after 48 hrs by CCK-8 assay; assay type: functional, cell-based
A549 [20] = test: Induction of apoptosis in human A549 cells assessed as cell viability pretreated with necroptosis inhibitor necrostatin-I for 24 hrs followed by incubation with compound at 200 nM and measured after 48 hrs by CCK-8 assay; assay type: functional, cell-based
A549 [21] = test: Induction of apoptosis in human A549 cells assessed as cell viability pretreated with caspase inhibitor Z-VAD-FMK for 24 hrs followed by incubation with compound at 200 nM and measured after 48 hrs by CCK-8 assay; assay type: functional, cell-based
A549 [22] = test: Induction of apoptosis in human A549 cells assessed as cell viability pretreated with autophagy inhibitor 3-methyladenine for 24 hrs followed by incubation with compound at 200 nM and measured after 48 hrs by CCK-8 assay; assay type: functional, cell-based
A549 [23] = test: Induction of apoptosis in human A549 cells assessed as cell viability pretreated with ferroptosis inhibitor desferoxamine for 24 hrs followed by incubation with compound at 200 nM and measured after 48 hrs by CCK-8 assay; assay type: functional, cell-based
A549 [24] = test: Induction of cell death in human A549 cells assessed as vanished mitochondrial cristae at 200 nM for 12 hrs by TEM analysis; assay type: functional, cell-based
A549 [25] = test: Induction of apoptosis in human A549 cells assessed as nucleic fragmentation incubated for 24 hrs by CCK-8 assay; assay type: functional, cell-based
A549 [26] = test: Induction of apoptosis in human A549 cells assessed as apoptotic body formation incubated for 24 hrs […]; assay type: functional, cell-based
A549 [27] = test: Induction of apoptosis in human A549 cells assessed as chromatin condensation incubated for 24 hrs by CCK-8 assay; assay type: functional, cell-based
Tubulin [28] = test: Inhibition of tubulin polymerization (unknown origin) assessed as fluorescence intensity emission at 410 nm for 60 mins; assay type: protein-complex assay, Homo sapiens
A549 [29] = test: Induction of cell death in human A549 cells assessed as increased mitochondrial membrane density at 200 nM for 12 hrs by TEM analysis; assay type: functional, cell-based
Tubulin [30] = test: Inhibition of [3H]colchicine binding to tubulin (unknown origin) by competitive binding assay; assay type: protein-complex assay, Homo sapiens
A549 [31] = test: Induction of apoptosis in human A549 cells assessed as cell rounding incubated for 24 hrs […]; assay type: functional, cell-based
[32] = Resistance index, ratio of IC50 for antiproliferative activity against human vincristine-resistant HCT-8/VCR cells to IC50 for antiproliferative activity against HCT-8 cells; assay type: functional
A549 [33] = test: Resistance index, ratio of IC50 for antiproliferative activity against human adriamycin-resistant A549/ADR cells to IC50 for antiproliferative activity against human A549 cells; assay type: functional
[34] = Resistance index, ratio of IC50 for antiproliferative activity against human paclitaxel-resistant A2780/TAX cells to IC50 for antiproliferative activity against human A2780 cells; assay type: functional
A549 [35] = test: Induction of lipid […] accumulation in human A549 cells at 100 nM incubated for 24 hrs by C11-BODIPY-581/591 staining based flow cytometry analysis; assay type: functional, cell-based

Structure (SMILES)	IC50 (A2780 [4]) [µM]	IC50 (MCF7) [µM]	IC50 (HCT-8 [5]) [µM]	IC50 (A549 [7]) [µM]	IC50 (HeLa) [µM]	further results
COc1ccc(C(=O)c2cc(OC)c(OC)c(OC)c2)c(NC(=O)CO)c1	0.1	0.23	0.12	0.07	0.07	Activity (A549 [1]): Active; Activity (A549 [2]): Active; Activity (A549 [3]): Active; Activity (A549 [6]): Active; Activity (A549 [8]): Active; Activity (A549 [9]): Active
CCOc1ccccc1-n1c(C(C)N2CCN(C(=O)COc3ccc(Cl)cc3)CC2)nc2ccccc2c1=O (centres undefined) [ERASTIN]						Activity (A549 [10]): 1339.4 mm3; Activity (A549 [11]): Active; Activity (A549 [12]): 0.89 g; Activity (A549 [13]): Active; Activity (A549 [14]): Active; inhibition in vivo at 10 mg/kg (A549 [15]): 10.9%
COc1cccc2c1C(=O)c1c(O)c3c(c(O)c1C2=O)C[C@@](O)(C(=O)CO)C[C@@H]3O[C@H]1C[C@H](N)[C@H](O)[C@H](C)O1 [DOXORUBICIN HYDROCHLORIDE]	2.03		3.98			IC50 (A2780 [16]): 2.69 µM; IC50 (HCT-8 [17]): 21.6 µM; IC50 (A549 [18]): 12.5 µM
C=C(c1cc(OC)c(OC)c(OC)c1)c1ccc(OC)c(O)c1NC(=O)COC	0.45	0.56	0.28	0.19	0.33	Activity (A549 [19]): Active; Activity (A549 [20]): Active; Activity (A549 [21]): Active; Activity (A549 [22]): Active; Activity (A549 [23]): Active
COc1ccc(C(=O)c2cc(OC)c(OC)c(OC)c2)cc1O [PHENSTATIN]	0.11	0.96	0.36		0.22	Activity (A549 [24]): Active; Activity (A549 [25]): Active; Activity (A549 [26]): Active; Activity (A549 [27]): Active; IC50 (Tubulin [28]): 2.94 µM; Activity (A549 [29]): Active; IC50 (Tubulin [30]): 3.03 µM; Activity (A549 [31]): Active
CC[C@]1(O)C[C@H]2CN(CCc3c([nH]c4ccccc34)[C@@](C(=O)OC)(c3cc4c(cc3OC)N(C=O)[C@H]3[C@@](O)(C(=O)OC)[C@H](OC(C)=O)[C@]5(CC)C=CCN6CC[C@]43[C@@H]65)C2)C1 [VINCRISTINE]	0.03		0.35	0.06		Ratio IC50 [32]: 22.46; Ratio IC50 (A549 [33]): 9.33; IC50 (A2780 [16]): 0.17 µM; IC50 (HCT-8 [17]): 7.86 µM; IC50 (A549 [18]): 0.56 µM; Ratio IC50 [34]: 5.67
C=C(c1cc(OC)c(OC)c(OC)c1)c1ccc(OC)c(O)c1NC(C)=O	0.17	0.27	0.34	0.08	0.09	Activity (A549 [2]): Active; Activity (A549 [3]): Active; Activity (A549 [6]): Active; Activity (A549 [8]): Active; Activity (A549 [9]): Active
COc1ccc(C(=O)c2ccc(OC)c3c2OC(C)(C)C=C3)c(NC(=O)CO)c1	0.1	0.32	0.23	0.08	0.1	Activity (A549 [1]): Active; Activity (A549 [2]): Active; Activity (A549 [3]): Active; Activity (A549 [6]): Active; Activity (A549 [8]): Active; Activity (A549 [9]): Active
CC(=O)O[C@H]1C(=O)[C@@]2(C)[C@H]([C@H](OC(=O)c3ccccc3)[C@]3(O)C[C@H](OC(=O)[C@H](O)[C@@H](NC(=O)c4ccccc4)c4ccccc4)C(C)=C1C3(C)C)[C@]1(OC(C)=O)CO[C@@H]1C[C@@H]2O [PACLITAXEL]			0.02	0.03		IC50 (HCT-8 [17]): 0.13 µM; IC50 (A549 [18]): 0.07 µM
CCNCC(=O)Nc1cc(OC)ccc1C(=O)c1ccc2c(c1)C=CC(C)(C)O2	2.07	6.31	3.99	1.3	3.11	
C=C(c1ccc2c(c1)C=CC(C)(C)O2)c1ccc(OC)cc1NC(=O)CN(C)C	0.51	0.94	0.69	0.43	0.64	
COc1ccc(C(=O)c2ccc(OC)c3c2C=CC(C)(C)O3)c(NC(=O)CN(C)C)c1	3.99	6.53	5.66	1.85	3.62	
COc1ccc(/C=C/C(=O)c2ccc(OC)c3c2OC(C)(C)C=C3)cc1 [MILLEPACHINE]	3.09	6.98	5.02	3.95	6.03	
C=C(c1ccc(OC)cc1NC(=O)CNCC)c1ccc(OC)c2c1C=CC(C)(C)O2	2.01	2.92	3.05	1.87	2.59	
CCNCC(=O)Nc1cc(OC)ccc1C(=O)c1ccc(OC)c2c1OC(C)(C)C=C2	1.98	5.2	3.69	1.05	2.69	
C=C(c1ccc(OC)cc1NC(=O)CO)c1ccc(OC)c2c1OC(C)(C)C=C2	0.04	0.1	0.13	0.04	0.04	Activity (A549 [2]): Active; Activity (A549 [35]): Active; Activity (A549 [3]): Active; Activity (A549 [6]): Active; Activity (A549 [8]): Active; Activity (A549 [9]): Active
C=C(c1ccc(OC)cc1NC(=O)CNC)c1ccc(OC)c2c1C=CC(C)(C)O2	0.72	1.01	0.98	0.32	0.5	
